# Test results: patent US20210290648A1, “Potentiation of B-Lactam Antibiotics and B-Lactam/B-Lactamase Inhibitor Combinations Against Multidrug and Extensively Drug-Resistant Pseudomonas Aeruginosa Using Non-Ribosomal Tobramycin-Cyclam Conjugates” (University of Manitoba, priority 2018, published 2021)
# How the values were obtained:
# PA 101243 = test: Checkerboard combination study / MIC; format: cell-based, Pseudomonas aeruginosa
# WT P. aeruginosa PAO1 = test: Checkerboard combination study / MIC; format: cell-based, Pseudomonas aeruginosa; settings: for FICI in the presence of ≤10 μM of 1: antibiotic + compound 1; for MIC of Antibiotics in the presence of ≤10 μM of 1: antibiotic + compound 1 ≤10 μM; for FICI in the presence of ≤10 μM of 2: antibiotic + compound 2; for MIC of Antibiotics in the presence of ≤10 μM of 2: antibiotic + compound 2 ≤10 μM; for FICI in the presence of ≤10 μM of 3: antibiotic + compound 3; for MIC of Antibiotics in the presence of ≤10 μM of 3: antibiotic + compound 3 ≤10 μM
# PA 91433 = test: Checkerboard combination study / MIC; format: cell-based, Pseudomonas aeruginosa
# [1] = test system: Galleria mellonella larvae; test: Galleria mellonella tolerability study; settings: 100 mg/kg; positive control
# Experimental: In vitro and in vivo discordances have been observed in antimicrobial chemotherapy, thus, therapeutic efficacy may not necessarily be reliably extrapolated based on in vitro data alone. […] Colistin (100 mg/kg), an antibiotic well known for its toxicity towards eukaryotes, served as a positive control for this experiment while PBS served as negative control. […] Survivability was scored for a total of 4 days.
# In vivo larvae-infection model. In vivo synergistic effects were determined using Galleria mellonella infection model, as previously described (20). Briefly, worms were purchased from The Worm Lady® Live Feeder (ON, Canada), stored in their natural habitat at 16° C., and used within 10 days of delivery. The worms (average weight of 250 mg) were used for tolerability and efficacy studies. Tolerability study was performed by injecting 10 μL of antimicrobial agents only at concentrations equivalent to 100 mg/kg or 200 mg/kg. The worms (ten in each group) were incubated at 37° C. and monitored for 96 h. […] Overnight grown culture of respective MDR P. aeruginosa isolate was standardized to 0.5 McFarland standard and diluted in PBS to a final concentration of […]. 10 μL of this solution (5 CFU) was injected into each worm and incubated for 3 h at 37° C. […] Worms treated with 10 μL PBS or high concentrations of test antibiotics served as negative and positive control, respectively. The worms were incubated at 37° C. in Petri dishes lined with filter paper and scored for survivability every 6 h for up to 48 h. This experiment was repeated to give a total of thirty worms (n=30) in each case. Survival data curves were plotted using Kaplan-Meier survival analysis.
# K. pneumoniae ATCC 13883 = test: MIC, microbroth dilution; format: cell-based, Klebsiella pneumoniae; settings: standalone
# Experimental: (§1) Antimicrobial Susceptibility Assay. The in vitro antimicrobial activity of all compounds/antibiotics against a panel of bacteria was evaluated by microbroth dilution method in accordance with the Clinical and Laboratory Standards Institute (CLSI) guidelines. Overnight grown bacterial cultures were diluted in saline to achieve a 0.5 McFarland turbidity, followed by 1:50 dilution in Mueller-Hinton broth (MHB) for inoculation to a final concentration of approximately 5×10^5CFU/mL. The antimicrobial agents were 2-fold serially diluted in MHB in a 96-well plate and incubated at 37° C. with equal volumes of inoculum for 18 h. The lowest concentration that prevented the visible growth of bacteria was defined as the MIC for each antimicrobial agent. The broth with or without bacterial cells was used as positive or negative control, respectively.
# [2] = test system: human liver carcinoma (HepG2) cells; test: Cytotoxicity, PrestoBlue cell viability assay; format: cell-based; settings: highest concentration 50 μM, 48 h
# Experimental: Cytotoxicity Assay. Human embryonic kidney cells (HEK293) and HepG2 cells were grown in Dulbecco's modified eagle's medium supplemented with 10% fetal bovine serum in a humidified […] incubator at 37° C. Equal number of cells (100 μl of media containing ˜8000 cells) were dispersed into 96-well plates and wells with medium but no cells were used as blanks. After incubating for 24 h, […] varying concentrations of test compounds (at twice the desired concentrations) were added to each well, including the blanks. The treated cells were then incubated further for 48 h, after which PrestoBlue reagent was added to each well. The plates were then incubated for an additional hour on a nutator mixer in a 5% CO2 incubator. The fluorescence was read at […] on a SpectraMax M2 plate reader (Molecular Devices, USA). Cell viability were interpreted as previously described (55, 77). The values of blank were subtracted from each value, and the viability values of the treated samples relative to the controls with vehicle were calculated. The values for the plots are the means±standard deviation.
# [3] = test system: MRSE CAN-ICU 61589 (CAZ >32); test: MIC, microbroth dilution; format: cell-based; settings: standalone
# Experimental: as §1
# MSSE CANWARD-2008 81388 = test: MIC, microbroth dilution; format: cell-based; settings: standalone
# Experimental: as §1
# E. coli ATCC 25922 = test: MIC, microbroth dilution; format: cell-based; settings: standalone
# Experimental: as §1
# PA 260 = test: Checkerboard combination study / MIC; format: cell-based, Pseudomonas aeruginosa
# PAO200 = format: cell-based, Pseudomonas aeruginosa
# Excerpt: (§2) PAO200 is a tnexA-rnexB-oprM deletion strain while PAO750 lacks five important RND pumps (McxAB-OprM, MexCD-OprJ, MexEF-OprN, Mex JK, and MexXY) and the outer membrane protein OpmH (46, 47). Some of these pumps are homologues of broad substrate specificities that extrude different classes of antimicrobial agents and confer resistance on P. aeruginosa (48).
# as §1
# (§3) Checkerboard Assay. Combination studies with different antibiotics were performed in 96-well plates as previously described (22). Briefly, the antibiotic of interest was serially diluted in MHB along the abscissa while the adjuvant (newly synthesized conjugates) was serially diluted in MHB along the ordinate. This creates a 10×7 matrix wherein each well consists of a combination of different antibiotic and adjuvant concentrations. Overnight grown bacterial cultures were diluted in saline to achieve a 0.5 McFarland turbidity, followed by 1:50 dilution in Mueller-Hinton broth (MHB) for inoculation to a final concentration of approximately 5×10^5CFU/mL. Equal volume of this bacterial culture was then added to each well and incubated at 37° C. for 18 h. After incubation, the plates were read on EMax® Plus microplate reader (Molecular Devices, Sunnyvale, Calif., USA) at 590 nm. MIC was recorded as wells with the lowest concentration of drugs with no bacterial growth. The fractional inhibitory concentration (FIC) for each antibiotic was calculated by dividing the MIC of the antibiotic in the presence of adjuvant by the MIC of the antibiotic alone. Similarly, the FIC of adjuvant was calculated by dividing the MIC of the adjuvant in the presence of antibiotic by the MIC of the adjuvant alone. FIC index is the sum of both FICs. FIC indices of <0.5 were deemed synergistic; 0.5-4, no interaction; and >4, antagonistic.
# PAO750 = format: cell-based, Pseudomonas aeruginosa
# Excerpt: as §2, §1, §3
# PA 101885 = test: Checkerboard combination study / MIC; format: cell-based, Pseudomonas aeruginosa
# PA 259 = test: Checkerboard combination study / MIC; format: cell-based, Pseudomonas aeruginosa
# PA 264 = test: Checkerboard combination study / MIC; format: cell-based, Pseudomonas aeruginosa
# PA 262 = test: Checkerboard combination study / MIC; format: cell-based, Pseudomonas aeruginosa
# [4] = test system: MDR/XDR P. aeruginosa clinical isolates; test: MIC and checkerboard, panel of clinical isolates; format: cell-based, Pseudomonas aeruginosa; settings: antibiotic + compound 2 (8.7 μM); resistant P. aeruginosa isolates
# PA 114228 = test: Checkerboard combination study / MIC; format: cell-based, Pseudomonas aeruginosa
# PA 100036 = test: Checkerboard combination study / MIC; format: cell-based, Pseudomonas aeruginosa
# [5] = MIC of antibiotic combined with compound 2
compound,measurement,setting,value
Colistin,MIC of colistin,PA 101243; PA101243,1024 µg/mL
same,FICI in the presence of ≤10 μM of 1,WT P. aeruginosa PAO1; WT PAO1,2.00
same,MIC of Antibiotics in the presence of ≤10 μM of 1,WT P. aeruginosa PAO1; WT PAO1,2 µg/mL
same,FICI in the presence of ≤10 μM of 2,WT P. aeruginosa PAO1; WT PAO1,2.00
same,MIC of Antibiotics in the presence of ≤10 μM of 2,WT P. aeruginosa PAO1; WT PAO1,2 µg/mL
same,FICI in the presence of ≤10 μM of 3,WT P. aeruginosa PAO1; WT PAO1,1.02
same,MIC of Antibiotics in the presence of ≤10 μM of 3,WT P. aeruginosa PAO1; WT PAO1,1 µg/mL
same,FICI with compounds 1-3,"WT P. aeruginosa PAO1; antibiotic + compounds 1-3 at ≤10 μM (≤16 μg/mL), WT PAO1",2
same,MIC alone,"WT P. aeruginosa PAO1; antibiotic alone, WT PAO1 (Table 2)",Colistin (1) μg/ml
same,MIC of colistin,PA 91433; PA91433,4 µg/mL
same,survival of larvae,[1],30%
5-O-(Dodecylcyclam)-tobramycin.9HCl [Compound 3],MIC,K. pneumoniae ATCC 13883,64 µg/mL
same,cell viability,[2],about 60%
same,MIC,[3],32 µg/mL
same,MIC,MSSE CANWARD-2008 81388,16 µg/mL
same,MIC,E. coli ATCC 25922,64 µg/mL
CO/N=C(\C(=O)N[C@@H]1C(=O)N2C(C(=O)O)=C(COC(C)=O)CS[C@H]12)c1csc(N)n1 [Cefotaxime],MICCombination (antibiotic),PA 260; [5],512 µg/mL
same,FICI,PA 260; antibiotic + compound 2,<0.53
same,MICAntibiotic,PA 260; antibiotic alone,1024 µg/mL
same,FICAntibiotic,PA 260; with compound 2,0.500
same,MIC of antibiotic + Compound 2 in PAO200,"PAO200; + compound 2 ≤8.7 μM, PAO200",4 µg/mL
same,MIC of antibiotic alone in PAO200,"PAO200; antibiotic alone, PAO200 efflux-deficient",8 µg/mL
same,MIC of antibiotic + Compound 2 in PAO750,"PAO750; + compound 2 ≤8.7 μM, PAO750",2 µg/mL
same,MIC of antibiotic alone in PAO750,"PAO750; antibiotic alone, PAO750 efflux-deficient",32 µg/mL
same,MICCombination (antibiotic),PA 101885; [5],8 µg/mL
same,FICI,PA 101885; antibiotic + compound 2,<0.13
same,MICAntibiotic,PA 101885; antibiotic alone,128 µg/mL
same,FICAntibiotic,PA 101885; with compound 2,0.063
same,MICCombination (antibiotic),"PA 101243; MIC of antibiotic combined with compound 2, PA 101243",128 µg/mL
same,FICI,"PA 101243; antibiotic + compound 2, PA 101243",<0.50
same,MICAntibiotic,"PA 101243; antibiotic alone, PA 101243",256 µg/mL
same,FICAntibiotic,"PA 101243; with compound 2, PA 101243",0.500
same,MICCombination (antibiotic),PA 259; [5],512 µg/mL
same,FICI,PA 259; antibiotic + compound 2,<0.31
same,MICAntibiotic,PA 259; antibiotic alone,2048 µg/mL
same,FICAntibiotic,PA 259; with compound 2,0.250
same,MIC of antibiotic + Compound 2 in PAO1,"WT P. aeruginosa PAO1; + compound 2 ≤8.7 μM, PAO1",4 (4) μg/ml
same,MIC,"WT P. aeruginosa PAO1; Pseudomonas aeruginosa, PAO1, 18 h, antibiotic alone, WT PAO1 (Table 2), read-out: MIC alone",16 µg/mL
same,FICI in the presence of ≤10 μM of 1,WT P. aeruginosa PAO1; WT PAO1,0.13
same,MIC of Antibiotics in the presence of ≤10 μM of 1,WT P. aeruginosa PAO1; WT PAO1,2 µg/mL
same,FICI in the presence of ≤10 μM of 2,WT P. aeruginosa PAO1; WT PAO1,0.26
same,MIC of Antibiotics in the presence of ≤10 μM of 2,WT P. aeruginosa PAO1; WT PAO1,4 µg/mL
same,FICI in the presence of ≤10 μM of 3,WT P. aeruginosa PAO1; WT PAO1,0.27
same,MIC of Antibiotics in the presence of ≤10 μM of 3,WT P. aeruginosa PAO1; WT PAO1,4 µg/mL
same,MIC of antibiotic alone in PAO1,"WT P. aeruginosa PAO1; antibiotic alone, PAO1 wild-type (Table 4)",16 µg/mL
same,MICCombination (antibiotic),"PA 91433; MIC of antibiotic combined with compound 2, PA 91433",8 µg/mL
same,FICI,"PA 91433; antibiotic + compound 2, PA 91433",<0.07
same,MICAntibiotic,"PA 91433; antibiotic alone, PA 91433",1024 µg/mL
same,FICAntibiotic,"PA 91433; with compound 2, PA 91433",0.008
same,MICCombination (antibiotic),PA 264; [5],512 µg/mL
same,FICI,PA 264; antibiotic + compound 2,<0.31
same,MICAntibiotic,PA 264; antibiotic alone,2048 µg/mL
same,FICAntibiotic,PA 264; with compound 2,0.250
same,MICCombination (antibiotic),PA 262; [5],32 µg/mL
same,FICI,PA 262; antibiotic + compound 2,<0.31
same,MICAntibiotic,PA 262; antibiotic alone,128 µg/mL
same,FICAntibiotic,PA 262; with compound 2,0.250
same,resistant isolates reaching CLSI clinical breakpoint,[4],four out of ten
same,MICCombination (antibiotic),PA 114228; [5],16 µg/mL
same,FICI,PA 114228; antibiotic + compound 2,<0.14
same,MICAntibiotic,PA 114228; antibiotic alone,128 µg/mL
same,MICCombination (antibiotic),PA 100036; [5],8 µg/mL
same,FICI,PA 100036; antibiotic + compound 2,<0.31
same,MICAntibiotic,PA 100036; antibiotic alone,32 µg/mL
same,FICAntibiotic,PA 100036; with compound 2,0.250
